Measured values reported in US20250186503A1, “METHODS AND COMBINATIONS FOR TREATMENT AND T CELL MODULATION” (Juno Therapeutics, Inc., priority 2018, published 2025).
“Also recorded” adds a separate entry of the source.

Assays:
[1] = system: anti-CD19 CAR-expressing T cells; assay: 28-day serial stimulation of anti-CD19 CAR-expressing T cells; format: cell-based, human; set-up: long term product performance: dose or concentration left out as unconfirmed
Protocol: Cells were counted after each stimulation and cell doublings were calculated. […] Data represents mean+/−S.E.M of triplicated treatments from 3 donors. Each arrow represents a re-stimulation time point. […] Cells were counted after each stimulation and cell doublings were calculated. […] Data represents mean+/−S.E.M of triplicated treatments from three donors. Each arrow represents a re-stimulation time point.

CAR T cells = assay: Chronic stimulation assay rendering CAR T cells hypofunctional (concurrent or rescue treatment); format: cell-based, human; details: exposure following chronic stimulation
Protocol: Anti-CD19 CAR-expressing T cells were subjected to chronic stimulation conditions by being incubated with plate-bound anti-idiotypic (anti-ID) antibody for a period of 5 or 6 days.

Aiolos = molecular target: T1, Aiolos (Homo sapiens, UniProt Q96SW2+Q9UKT9); assay: Intracellular Aiolos expression in anti-CD19 CAR+ T cells stimulated with 1 μg/ml CAR-specific anti-idiotypic antibody; format: cell-based; details: 10 to 10000 nM, overnight
T1 construct: assess intracellular levels of Ikaros and Aiolos in CD4+ CAR+ or CD8+ CAR+ cells; endogenous in cells; host or cells: primary human CD4+ and CD8+ T cells transduced with an anti-CD19 CAR (FMC63 scFv)
T1 sequence (Q9UKT9 whole entry): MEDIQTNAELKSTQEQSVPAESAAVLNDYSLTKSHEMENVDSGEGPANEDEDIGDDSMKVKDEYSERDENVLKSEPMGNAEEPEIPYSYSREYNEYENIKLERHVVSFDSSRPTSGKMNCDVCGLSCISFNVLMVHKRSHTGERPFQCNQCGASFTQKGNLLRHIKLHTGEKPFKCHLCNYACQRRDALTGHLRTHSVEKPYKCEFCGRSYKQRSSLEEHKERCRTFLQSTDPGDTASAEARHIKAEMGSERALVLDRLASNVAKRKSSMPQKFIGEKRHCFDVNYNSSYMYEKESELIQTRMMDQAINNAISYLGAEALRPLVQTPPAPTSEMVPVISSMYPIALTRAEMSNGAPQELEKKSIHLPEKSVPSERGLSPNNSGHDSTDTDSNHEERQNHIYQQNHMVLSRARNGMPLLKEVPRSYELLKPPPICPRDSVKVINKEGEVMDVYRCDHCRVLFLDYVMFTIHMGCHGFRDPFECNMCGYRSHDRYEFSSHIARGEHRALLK
T1 sequence (Q96SW2 whole entry): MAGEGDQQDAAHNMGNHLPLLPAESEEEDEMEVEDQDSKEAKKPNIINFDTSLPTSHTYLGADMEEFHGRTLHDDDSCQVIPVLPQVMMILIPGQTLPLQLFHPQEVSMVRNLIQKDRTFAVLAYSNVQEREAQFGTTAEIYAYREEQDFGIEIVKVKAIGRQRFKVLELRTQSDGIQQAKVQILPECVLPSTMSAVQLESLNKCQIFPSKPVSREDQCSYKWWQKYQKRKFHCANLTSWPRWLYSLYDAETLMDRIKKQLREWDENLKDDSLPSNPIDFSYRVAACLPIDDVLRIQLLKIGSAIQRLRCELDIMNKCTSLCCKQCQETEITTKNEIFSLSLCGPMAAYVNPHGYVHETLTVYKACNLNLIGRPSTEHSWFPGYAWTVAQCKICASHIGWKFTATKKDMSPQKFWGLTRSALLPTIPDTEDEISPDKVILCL
T1 sequence (Q16531 whole entry partner): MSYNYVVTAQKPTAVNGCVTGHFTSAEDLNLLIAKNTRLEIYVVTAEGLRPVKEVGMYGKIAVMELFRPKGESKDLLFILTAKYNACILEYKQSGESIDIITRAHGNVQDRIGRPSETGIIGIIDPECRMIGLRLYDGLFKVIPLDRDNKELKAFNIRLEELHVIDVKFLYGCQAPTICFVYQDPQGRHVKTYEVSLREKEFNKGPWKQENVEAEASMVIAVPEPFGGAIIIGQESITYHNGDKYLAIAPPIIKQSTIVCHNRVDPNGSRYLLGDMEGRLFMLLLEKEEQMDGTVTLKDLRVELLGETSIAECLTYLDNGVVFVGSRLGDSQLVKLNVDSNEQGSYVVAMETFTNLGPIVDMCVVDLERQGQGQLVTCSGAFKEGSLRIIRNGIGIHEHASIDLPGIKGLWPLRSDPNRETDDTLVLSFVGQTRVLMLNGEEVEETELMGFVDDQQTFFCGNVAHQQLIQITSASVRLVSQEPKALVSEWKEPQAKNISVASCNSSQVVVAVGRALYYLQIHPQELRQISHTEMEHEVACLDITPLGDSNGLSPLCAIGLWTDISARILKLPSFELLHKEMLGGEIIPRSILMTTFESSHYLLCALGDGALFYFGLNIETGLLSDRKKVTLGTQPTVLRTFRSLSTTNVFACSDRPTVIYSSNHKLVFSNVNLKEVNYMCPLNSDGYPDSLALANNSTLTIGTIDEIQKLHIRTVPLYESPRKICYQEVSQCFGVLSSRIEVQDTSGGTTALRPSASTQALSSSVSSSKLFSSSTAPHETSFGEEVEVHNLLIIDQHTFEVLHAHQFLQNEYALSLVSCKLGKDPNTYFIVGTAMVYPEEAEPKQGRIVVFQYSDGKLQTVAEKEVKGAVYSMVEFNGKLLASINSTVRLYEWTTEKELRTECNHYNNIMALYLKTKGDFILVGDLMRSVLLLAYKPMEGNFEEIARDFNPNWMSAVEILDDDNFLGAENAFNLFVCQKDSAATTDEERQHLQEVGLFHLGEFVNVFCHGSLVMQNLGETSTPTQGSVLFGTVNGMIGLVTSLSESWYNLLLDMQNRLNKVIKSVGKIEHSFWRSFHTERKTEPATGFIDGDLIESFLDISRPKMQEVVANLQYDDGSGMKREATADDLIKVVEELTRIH
Protocol: (§1) Following overnight incubation, anti-CD19 CAR-expressing T cells were stained with antibodies and analyzed by flow cytometry to assess intracellular levels of Ikaros and Aiolos in the CD4+ CAR+ or CD8+ CAR+ cells, as measured by median fluorescence intensity (MFI).
as §1, with “in” for “in the”, “(MFI). Median fluorescence intensity (MFI) values for Ikaros and Aiolos were normalized and calculated as a percentage relative to vehicle control.” for “(MFI).”

K562.CD19 target cells = assay: Cytolytic function of anti-CD19 CAR+ T cells against K562.CD19 target cells (killing index); format: cell-based, human; details: for cytolytic function of anti-CD19 CAR-expressing T cells: generally
Protocol: (§2) Cytokine expression, target cell cytolysis and expression of surface markers of anti-CD19 CAR-expressing T cells were assessed.
K562.CD19 target cells were transduced with NucLight Red to permit their tracking by microscopy. Cytolytic activity was assessed by measuring the loss of viable target cells over a period of five days, as determined by red fluorescent signal (using the IncuCyte® Live Cell Analysis System, Essen Bioscience).

[2] = system: anti-CD19 CAR-expressing T cells; assay: T cell surface marker expression after co-culture with K562.CD19 target cells; format: cell-based, human; details: for expression of CD27 / expression of the other assessed activation markers / expression of CD45RO: 24 hours; for expression of CD45RO: all donors and E:T ratios; for expression of CD69 and LAG3: cells derived from donor 3
Protocol: as §2

[3] = system: anti-CD19 CAR-expressing T cells; assay: Cytokine production after anti-idiotypic antibody stimulation of anti-CD19 CAR+ T cells; format: cell-based, human; details: 24 hours; anti-idiotypic antibody 0.3, 3 and 30 μg/ml
Protocol: Cytokine expression and expression of surface markers of anti-CD19 CAR-expressing T cells were assessed.

[4] = system: anti-CD19 CAR-expressing T cells; assay: Surface marker expression after 4 days anti-idiotypic antibody stimulation; format: cell-based, human; details: for surface markers CD25 and CD69: 4 days, some donor-derived cells, depending on stimulation; for expression of the surrogate marker for CAR expression: anti-idiotypic antibody 0.3 μg/ml; for expression of PD-1: cells generated from at least one donor
Protocol: Anti-CD19 CAR-expressing T cells compositions (containing CD4+ and CD8+ T cells combined at a 1:1 ratio) were generated substantially as described in Example 14. Approximately 1×10^5 CAR-expressing cells were added to wells of a 96-well plate that had been pre-coated with an anti-idiotypic antibody specific to the scFv of the anti-CD19 CAR-expressing T cells at concentrations of 0, 0.3, 3 and 30 μg/ml. […] Cytokine expression and expression of surface markers of anti-CD19 CAR-expressing T cells were assessed.
CAR-expressing T cells were stained for CD3, CD4, CD8 and the surrogate marker for CAR expression, and also for the following markers: CD25, PD-1, and CD69.

[5] = system: anti-CD19 CAR-expressing T cells with K562.CD19 cells; assay: Serial stimulation of anti-CD19 CAR+ T cells with irradiated K562.CD19 cells (surface markers, cytolytic activity, expansion); format: cell-based, human; details: for CD25 and LAG3 expression: day 4, all three donors; for PD-1 expression: day 4 and day 28, both E:T ratios; for cytolytic activity after serial stimulation: day 24; for CCR7 expression: day 28; for cell doublings: 1000 nM
Protocol: Every 3-4 days (start of each new round), the cells were counted.
Expression of select surface markers was assessed on cells at day 4 (i.e., 4 days after the first stimulation) and day 28 (i.e., 4 days after the seventh stimulation). Specifically, harvested cells were analyzed by flow cytometry for CD3, CD4, CD8 and the surrogate marker for CAR expression, and also for the following surface markers: CD69, CD107a, PD-1, CD25, CD62L, CCR7, CD45RO, CD27, and LAG3.

RL tumor spheroids = assay: RL tumor spheroid model with anti-CD19 CAR T cells; format: cell-based; details: Day 4; 1 μM Compound 1; 0.01 μM or 0.1 μM Compound 2
Protocol: Cytolytic activity was also assessed in a spheroid model. About 5,000 RL cells were plated 48 hours prior to addition of 5,000 anti-CD19 CAR T cells (1:1 E:T ratio).

RL cells = assay: Rescue of chronically stimulated anti-CD19 CAR T cells cultured with RL cells; format: cell-based; details: Compound 1 (1 μM) or Compound 2 (0.001 μM, 0.01 μM or 0.1 μM)
Protocol: The RL cells were further used to assess the ability of immunomodulatory compounds to rescue or reverse the anti-CD19 CAR T cells from exhaustion. […] Long-term, chronic stimulation was carried out by stimulation of CAR T cells with 30 μg/mL plate-bound anti-idiotypic (anti-ID) antibody for 6 days, substantially as described in Example 22. After the chronic stimulation, the CAR-T cells were cultured with RL cells in the presence of Compound 1 or Compound 2. Cytolytic activity was assessed over time by measuring tumor cell number in the culture.

[6] = system: anti-CD19 CAR-expressing T cells with K562.CD19 cells; assay: Serial stimulation of anti-CD19 CAR+ T cells with irradiated K562.CD19 cells (surface markers, cytolytic activity, expansion); format: cell-based, human; details: CD4+ and CD8+ CAR-expressing T cells, all three donors
[7] = 5:1 E:T ratio, high concentrations, Donor 2

Row | SMILES | activity/function of chronically stimulated, exhausted T cells (rescue) (CAR T cells) | intracellular Aiolos expression (Aiolos) | cytolytic activity (K562.CD19 target cells; 2.5:1 E:T ratio, some donors) | cytolytic activity (K562.CD19 target cells; [7]) | cytolytic function of anti-CD19 CAR-expressing T cells (K562.CD19 target cells) | expression of CD27 [2] | expression of the other assessed activation markers [2] | expression of CD45RO [2] | expression of CD69 and LAG3 [2] | IFN-γ, IL-2 and TNF-α production [3] | surface markers CD25 and CD69 [4] | expression of the surrogate marker for CAR expression [4] | expression of PD-1 [4] | CD25 and LAG3 expression [5] | PD-1 expression ([5]; all donors) | cytolytic activity after serial stimulation [5] | CCR7 expression [5] | RL tumor spheroid sensitivity to compound (RL tumor spheroids) | CAR T cell cytolytic activity against RL cells (RL cells) | expression of CD28 [6] | further results
1 | Cc1nc2cccc(N)c2c(=O)n1C1CCC(=O)NC1=O (stereo not shown) [Compound 1, 3-(5-amino-2-methyl-4-oxo-4H-quinazolin-3-yl)-piperidine-2,6-dione] | recover activity or have their activity restored or partially restored; also recorded: rescue or restore T cell function | concentration dependent decrease | slightly reduced cytolytic activity | slight but consistent increase | limited effect | downregulated in a concentration-dependent manner | remained unchanged | increased | increased in a concentration-dependent manner | increased relative to the vehicle control | increase | Increased expression | increased | upregulated | downregulated | increase the cytolytic activity | generally decreased | sensitive | substantially improved CAR T cell cytolytic activity | decreased in a dose-dependent manner | long term product performance ([1]; higher concentrations): detrimental; long-term proliferative potential of CAR-expressing T cells ([1]; prolonged treatment, 10 or 100 nM): increase; cell counts of anti-CD19 CAR-expressing T cells ([5]; 10 nM and 100 nM, after 24 days): higher than the untreated controls for two out of three donors; number of doublings of CAR+ cells ([5]; 500 nM, rounds after 3-4 rounds of stimulation): lower than the untreated control groups
2 | O=C1CC[C@H](N2Cc3c(OCc4ccc(CN5CCOCC5)cc4)cccc3C2=O)C(=O)N1 [Compound 2, (S)-3-[4-(4-morpholin-4-ylmethyl-benzyloxy)-1-oxo-1,3-dihydro-isoindol-2-yl]-piperidine-2,6-dione] | rescue or restore T cell function | concentration dependent decrease |  |  |  |  |  |  |  |  |  |  |  |  |  |  |  | sensitive | substantially improved CAR T cell cytolytic activity |  | 
3 | Nc1cccc2c1CN(C1CCC(=O)NC1=O)C2=O (stereo not shown) [lenalidomide, 3-(4-amino-1-oxo-1,3-dihydro-2H-isoindol-2-yl)piperidine-2,6-dione] | rescue or restore T cell function |  | slightly reduced cytolytic activity | slight but consistent increase | limited effect | downregulated in a concentration-dependent manner | remained unchanged | increased | not | increased relative to the vehicle control | increase | Increased expression | increased | upregulated | downregulated | increase the cytolytic activity | generally decreased |  |  | decreased in a dose-dependent manner | T cell potency activity compared with Compound 1 [1]: lower; CAR+ T cell counts ([5]; 100 nM): increased CAR+ T cell counts for two out of three donors; cell doublings ([5]; 2.5:1 E:T ratio, later rounds): lower cell doublings were only observed in two of the donors; cell doublings ([5]; 10:1 E:T ratio, after 3-4 rounds, all donors): decreased cell doublings
